The record followed here is patent US7960562B2, “Propane-1,3-dione derivative or salt thereof” (Astellas Pharma Inc., priority 2005, dated 2011).

Read-outs that look alike come from different tables or passages of the source.

The target in the test is T1, human GnRH receptor (Homo sapiens, UniProt P30968).
T1 sequence (P30968 1-328): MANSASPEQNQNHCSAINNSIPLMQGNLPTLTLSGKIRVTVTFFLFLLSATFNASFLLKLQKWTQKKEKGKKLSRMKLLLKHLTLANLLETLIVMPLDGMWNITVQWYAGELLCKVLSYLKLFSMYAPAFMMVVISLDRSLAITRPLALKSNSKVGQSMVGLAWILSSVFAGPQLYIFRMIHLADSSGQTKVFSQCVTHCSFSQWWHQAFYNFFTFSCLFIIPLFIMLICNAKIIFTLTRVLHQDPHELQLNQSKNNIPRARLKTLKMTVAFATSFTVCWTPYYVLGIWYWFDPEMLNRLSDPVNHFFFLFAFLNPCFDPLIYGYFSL
The test is described as follows: Test for GnRH receptor antagonistic effect (inhibition of 125I-D-Trp6-LHRH binding). The procedure:
The GnRH receptor antagonistic effects of the compounds of the present invention were evaluated by calculating their concentration that inhibit 50% of the binding of ^125I-D-Trp^6-LHRH to a human GnRH receptor (IC50), according to the description in Patent Reference 1, page 56 “1. Test for GNRH Receptor Antagonistic Effect”.
Accordingly, for confirming the usefulness of “group of —SO2—R^3”, the activities of the compounds of the present invention was compared with those of the comparative compounds having —CO—R^3 group.

[1] abbreviates: Table 2, read-out: IC50 (GnRH receptor binding), SO2-R3 compounds versus comparative CO-R3 compounds.
The mark [2] stands for this setting: Table 1, read-out: IC50 (concentration that inhibits 50% of the binding of 125I-D-Trp6-LHRH to a human GnRH receptor).

In the case of `O=C(C(C(=O)c1cccc(S(=O)(=O)NCCO)c1)=C1Nc2ccccc2N1)c1cc(F)cc(F)c1` [Example 77], under setting [1], the IC50 came out at 0.066 nM.
Take `CC(C)(O)C(=N)NS(=O)(=O)c1cccc(C(=O)C(C(=O)c2cccc(F)c2)=C2Nc3ccccc3N2)c1` [Example 211]: the IC50 under setting [2] turned out to be 0.094 nM.
Same read-out and setting: then `CC(=N)NS(=O)(=O)c1cccc(C(=O)C(C(=O)c2cccc(F)c2)=C2Nc3ccccc3N2)c1` [Example 245], with 0.058 nM.
As for `CC(=O)NC(N)=NS(=O)(=O)c1cccc(C(=O)C(C(=O)c2cc(F)cc(F)c2)=C2Nc3ccccc3N2)c1` [Example 74], the IC50 under setting [1] stood at 0.56 nM.
Same read-out and setting: under `NC(N)=NS(=O)(=O)c1cccc(C(=O)C(C(=O)c2cc(F)cc(F)c2)=C2Nc3ccccc3N2)c1` [Example 89] stands 0.022 nM; under `CC(=N)NC(=O)c1cccc(C(=O)C(C(=O)c2cc(F)cc(F)c2)=C2Nc3ccccc3N2)c1` [compound 1, reference compound], 7.1 nM.
On the same count and under the same terms, under `CC(=O)NC(N)=NC(=O)c1cccc(C(=O)C(C(=O)c2cc(F)cc(F)c2)=C2Nc3ccccc3N2)c1` [Comparative Example 3, reference compound] stands 16 nM.
With `C[C@@H](O)C(=N)NS(=O)(=O)c1cc(C(=O)C(C(=O)c2cccc(F)c2)=C2Nc3ccccc3N2)ccc1F` [Example 696, (2R)-N-({5-[2-(1,3-dihydro-2H-benzimidazol-2-ylidene)-3-(3-fluorophenyl)-3-oxopropanoyl]-2-fluorophenyl}sulfonyl)-2-hydroxypropanimidamide], the IC50 under setting [2] is 0.18 nM.
Turning to `O=C(NCCO)c1cccc(C(=O)C(C(=O)c2cc(F)cc(F)c2)=C2Nc3ccccc3N2)c1` [compound 4, reference compound], under setting [1], the IC50 was found to be 9.6 nM.
Regarding `CC(C)(O)C(=N)NS(=O)(=O)c1cc(C(=O)C(C(=O)c2cccc(F)c2)=C2Nc3ccccc3N2)ccc1F` [Example 662], the IC50 under setting [2] came to 0.24 nM.
Regarding `CC(=N)NS(=O)(=O)c1cccc(C(=O)C(C(=O)c2cc(F)cc(F)c2)=C2Nc3ccccc3N2)c1` [Example 73], under setting [1], the IC50 was 0.053 nM.
